Tests used:
MAO-A = target: T1, MAO-A (Homo sapiens, UniProt P21397); assay: Oxidation by recombinant human MAO-A; type: in vitro ADME; settings: 1 mg/mL, 5 μmol/L, 30 min, no cofactor
T1 construct: purchased BD Gentest (Woburn, MA); host or cells: baculovirus-infected insect cells
Text: (§1) Recombinant human CYPs (Supersomes™; BD Gentes, Woburn, MA: CYP1A1, CYP1A2, CYP2A6, CYP2B6, CYP2C8, CYP2C9, CYP2C18, CYP2C19, CYP2D6, CYP2E1, CYP3A4 and CYP3A5), FMOs (Supersomes™: FMO1, FMO3, FMO5), MAOs (Supersomes™: MAO-A and MAO-B), and UGTs (Supersomes™: UGT1A1, UGT1A3, UGT1A4, UGT1A6, UGT1A7, UGT1A8, UGT1A9, UGT1A10, UGT2B4, UGT2B7, UGT2B15, and UGT2B17) expressed in baculovirus-infected insect cells and control microsomes from insect cells infected with wild-type baculovirus were all obtained from BD Gentest (Woburn, MA). […]
(§2) In human liver microsomes and recombinant isoforms, the percentage of metabolism was determined on the basis of unchanged drug disappearance, using the following equation [drawing 1] where UDt = 30 min represents the unchanged drug peak area after a 30-min incubation period and UDt = 0, the unchanged drug peak area at t = 0. […]
(§3) Figure 5 Contribution of individual CYPs, FMOs and MAOs to the oxidation of dronedarone and its metabolites. […] Unchanged drugs were quantified by LC/MS-MS relative to the synthetic references as described in Materials and Methods. Data are expressed as the percentage of oxidation.

MAO-B = target: T2, MAO-B (Homo sapiens, UniProt P27338); assay: Oxidation by recombinant human MAO-B; type: in vitro ADME; settings: 1 mg/mL, 5 μmol/L, 30 min, no cofactor
T2 construct: purchased BD Gentest (Woburn, MA); host or cells: baculovirus-infected insect cells
Text: as §1, §2, §3

UGT2B15 = target: T3, UGT2B15 (Homo sapiens, UniProt P54855); assay: Glucuronidation by recombinant human UGT2B15; type: in vitro ADME; settings: 1 mg/mL, 5 μmol/L, 30 min, UDPGA
T3 construct: purchased BD Gentest (Woburn, MA); host or cells: baculovirus-infected insect cells
Text: (§4) Recombinant human CYPs (Supersomes™; BD Gentes, Woburn, MA: CYP1A1, CYP1A2, CYP2A6, CYP2B6, CYP2C8, CYP2C9, CYP2C18, CYP2C19, CYP2D6, CYP2E1, CYP3A4 and CYP3A5), FMOs (Supersomes™: FMO1, FMO3, FMO5), MAOs (Supersomes™: MAO-A and MAO-B), and UGTs (Supersomes™: UGT1A1, UGT1A3, UGT1A4, UGT1A6, UGT1A7, UGT1A8, UGT1A9, UGT1A10, UGT2B4, UGT2B7, UGT2B15, and UGT2B17) expressed in baculovirus-infected insect cells and control microsomes from insect cells infected with wild-type baculovirus were all obtained from BD Gentest (Woburn, MA).
(§5) For glucuronidation pathways, the assay mixture was composed of human liver microsomes (2 mg·mL^−1) or microsomes of baculovirus-infected cells expressing human UGTs (1 mg·mL^−1), uridine 5′-diphosphoglucuronic acid (UDPGA) (3 mmol/L), 100 mmol/L Tris HCl (pH 7.4) containing 5 mmol/L MgCl2 and 5 μmol/L of the investigated compound dissolved in DMSO in a final volume of 500 μL. The final concentration of DMSO in the reaction mixture was less than 1% (v/v). […]
(§6) Figure 7 Contribution of individual UGTs to the glucuronidation of propanoic acid-dronedarone and phenol-dronedarone. […] Unchanged drugs were quantified by LC/MS-MS relative to the synthetic references as described in Materials and Methods. Data are expressed as the percentage of glucuronidation.

CYP2C19 = target: T4, CYP2C19 (Homo sapiens, UniProt P33261); assay: Oxidation by recombinant human CYP2C19; type: in vitro ADME; settings: 100 pmol/mL, 5 μmol/L, 30 min, NADPH
T4 construct: purchased BD Gentest (Woburn, MA); host or cells: baculovirus-infected insect cells
Text: as §1, §2, §3

UGT1A3 = target: T5, UGT1A3 (Homo sapiens, UniProt P35503); assay: Glucuronidation by recombinant human UGT1A3; type: in vitro ADME; settings: 1 mg/mL, 5 μmol/L, 30 min, UDPGA
T5 construct: purchased BD Gentest (Woburn, MA); host or cells: baculovirus-infected insect cells
Text: as §4, §5, §6

UGT1A1 = target: T6, UGT1A1 (Homo sapiens, UniProt P22309); assay: Glucuronidation by recombinant human UGT1A1; type: in vitro ADME; settings: 1 mg/mL, 5 μmol/L, 30 min, UDPGA
T6 construct: purchased BD Gentest (Woburn, MA); host or cells: baculovirus-infected insect cells
Text: as §4, §5, §6

CYP2C8 = target: T7, CYP2C8 (Homo sapiens, UniProt P10632); assay: Oxidation by recombinant human CYP2C8; type: in vitro ADME; settings: 100 pmol/mL, 5 μmol/L, 30 min, NADPH
T7 construct: purchased BD Gentest (Woburn, MA); host or cells: baculovirus-infected insect cells
Text: as §1, §2, §3

CYP2D6 = target: T8, CYP2D6 (Homo sapiens, UniProt P10635); settings: reversible inhibition, human liver microsomes, reported; cited from earlier work
T8 construct: purchased BD Gentest (Woburn, MA); host or cells: baculovirus-infected insect cells

[1] = cited from earlier work
[2] = design: method as in Touboul et al. [2003]; Wadhani et al. [2006]; settings: 400-mg twice daily, ref Touboul et al. [2003]; Wadhani et al. [2006]; cited from earlier work

T3 sequence (P54855 24-530): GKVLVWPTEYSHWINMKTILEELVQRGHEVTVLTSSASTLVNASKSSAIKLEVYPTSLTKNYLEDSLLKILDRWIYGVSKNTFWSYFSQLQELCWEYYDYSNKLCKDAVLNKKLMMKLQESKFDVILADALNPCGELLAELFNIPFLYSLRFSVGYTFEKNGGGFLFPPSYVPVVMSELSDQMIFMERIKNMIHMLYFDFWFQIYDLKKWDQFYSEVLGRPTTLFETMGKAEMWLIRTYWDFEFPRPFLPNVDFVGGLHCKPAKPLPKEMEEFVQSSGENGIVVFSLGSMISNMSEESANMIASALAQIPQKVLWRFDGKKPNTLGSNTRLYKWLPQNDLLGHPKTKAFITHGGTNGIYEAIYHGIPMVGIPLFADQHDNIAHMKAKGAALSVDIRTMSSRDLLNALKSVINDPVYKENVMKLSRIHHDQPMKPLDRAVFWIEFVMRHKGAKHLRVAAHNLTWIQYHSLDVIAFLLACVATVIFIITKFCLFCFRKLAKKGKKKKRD
T1 sequence (P21397 whole entry): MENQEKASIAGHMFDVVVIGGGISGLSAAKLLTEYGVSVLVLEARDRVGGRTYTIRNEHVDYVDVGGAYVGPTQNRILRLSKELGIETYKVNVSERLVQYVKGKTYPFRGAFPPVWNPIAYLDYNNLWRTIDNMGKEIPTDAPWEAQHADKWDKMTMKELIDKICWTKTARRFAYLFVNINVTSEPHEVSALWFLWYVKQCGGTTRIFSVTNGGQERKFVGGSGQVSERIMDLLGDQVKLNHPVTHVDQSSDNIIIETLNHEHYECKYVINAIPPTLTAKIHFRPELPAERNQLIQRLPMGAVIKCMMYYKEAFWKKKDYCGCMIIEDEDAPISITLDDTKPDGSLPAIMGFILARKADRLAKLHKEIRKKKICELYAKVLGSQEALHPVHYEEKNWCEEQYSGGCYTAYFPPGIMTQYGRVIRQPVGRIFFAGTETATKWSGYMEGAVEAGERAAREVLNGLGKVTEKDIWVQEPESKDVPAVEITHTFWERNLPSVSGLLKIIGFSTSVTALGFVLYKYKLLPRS
T4 sequence (P33261 whole entry): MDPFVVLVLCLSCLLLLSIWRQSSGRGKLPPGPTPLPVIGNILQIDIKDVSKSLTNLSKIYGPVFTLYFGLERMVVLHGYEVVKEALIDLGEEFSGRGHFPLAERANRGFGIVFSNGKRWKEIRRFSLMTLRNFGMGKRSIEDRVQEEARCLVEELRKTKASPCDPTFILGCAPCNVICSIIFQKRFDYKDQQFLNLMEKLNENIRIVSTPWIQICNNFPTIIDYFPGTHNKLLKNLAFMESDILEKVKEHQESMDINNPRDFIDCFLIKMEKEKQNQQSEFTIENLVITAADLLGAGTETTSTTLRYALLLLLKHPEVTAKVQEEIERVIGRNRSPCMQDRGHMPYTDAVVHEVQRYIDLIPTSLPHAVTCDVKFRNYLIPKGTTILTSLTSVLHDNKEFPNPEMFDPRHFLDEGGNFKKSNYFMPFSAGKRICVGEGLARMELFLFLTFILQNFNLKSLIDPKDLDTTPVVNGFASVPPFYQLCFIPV
T8 sequence (P10635 whole entry): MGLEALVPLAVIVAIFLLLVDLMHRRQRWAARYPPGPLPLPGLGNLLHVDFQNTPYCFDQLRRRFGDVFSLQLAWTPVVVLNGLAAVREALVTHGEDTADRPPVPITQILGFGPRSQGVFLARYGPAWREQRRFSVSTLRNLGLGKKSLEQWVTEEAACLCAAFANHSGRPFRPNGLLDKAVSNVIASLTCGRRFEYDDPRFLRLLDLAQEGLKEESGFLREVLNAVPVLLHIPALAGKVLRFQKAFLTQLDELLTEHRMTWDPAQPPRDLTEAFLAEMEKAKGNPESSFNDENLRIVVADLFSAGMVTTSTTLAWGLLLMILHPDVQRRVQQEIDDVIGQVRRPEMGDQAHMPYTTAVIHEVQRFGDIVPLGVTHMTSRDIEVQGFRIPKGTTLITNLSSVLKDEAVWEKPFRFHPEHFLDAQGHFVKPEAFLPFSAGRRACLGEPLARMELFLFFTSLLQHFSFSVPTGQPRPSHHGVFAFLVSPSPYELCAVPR
T5 sequence (P35503 29-534): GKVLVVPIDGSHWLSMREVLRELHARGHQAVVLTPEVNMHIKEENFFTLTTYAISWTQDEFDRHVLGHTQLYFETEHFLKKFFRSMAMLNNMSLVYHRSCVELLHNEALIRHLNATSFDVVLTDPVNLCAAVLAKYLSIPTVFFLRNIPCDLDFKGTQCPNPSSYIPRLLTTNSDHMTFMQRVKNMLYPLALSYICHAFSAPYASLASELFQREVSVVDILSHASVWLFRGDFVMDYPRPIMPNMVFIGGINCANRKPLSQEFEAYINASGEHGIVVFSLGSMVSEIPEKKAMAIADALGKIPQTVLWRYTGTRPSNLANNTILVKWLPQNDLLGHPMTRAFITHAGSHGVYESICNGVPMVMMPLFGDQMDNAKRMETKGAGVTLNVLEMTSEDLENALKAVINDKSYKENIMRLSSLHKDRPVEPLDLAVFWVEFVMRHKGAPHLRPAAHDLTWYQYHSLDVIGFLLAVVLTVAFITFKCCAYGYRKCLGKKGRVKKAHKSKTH
T2 sequence (P27338 whole entry): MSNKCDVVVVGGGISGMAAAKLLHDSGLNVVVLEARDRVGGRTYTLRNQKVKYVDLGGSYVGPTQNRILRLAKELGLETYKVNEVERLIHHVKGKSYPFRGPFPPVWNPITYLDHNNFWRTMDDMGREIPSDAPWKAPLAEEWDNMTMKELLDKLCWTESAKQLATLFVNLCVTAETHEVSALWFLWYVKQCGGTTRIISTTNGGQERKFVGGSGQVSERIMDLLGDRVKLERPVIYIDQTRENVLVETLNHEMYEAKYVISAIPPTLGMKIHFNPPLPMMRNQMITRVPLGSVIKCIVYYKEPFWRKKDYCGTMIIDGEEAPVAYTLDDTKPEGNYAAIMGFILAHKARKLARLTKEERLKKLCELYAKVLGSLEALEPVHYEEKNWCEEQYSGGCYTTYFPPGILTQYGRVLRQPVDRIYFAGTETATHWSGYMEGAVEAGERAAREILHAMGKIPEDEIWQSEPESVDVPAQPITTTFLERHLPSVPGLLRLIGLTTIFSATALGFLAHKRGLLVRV
T7 sequence (P10632 whole entry): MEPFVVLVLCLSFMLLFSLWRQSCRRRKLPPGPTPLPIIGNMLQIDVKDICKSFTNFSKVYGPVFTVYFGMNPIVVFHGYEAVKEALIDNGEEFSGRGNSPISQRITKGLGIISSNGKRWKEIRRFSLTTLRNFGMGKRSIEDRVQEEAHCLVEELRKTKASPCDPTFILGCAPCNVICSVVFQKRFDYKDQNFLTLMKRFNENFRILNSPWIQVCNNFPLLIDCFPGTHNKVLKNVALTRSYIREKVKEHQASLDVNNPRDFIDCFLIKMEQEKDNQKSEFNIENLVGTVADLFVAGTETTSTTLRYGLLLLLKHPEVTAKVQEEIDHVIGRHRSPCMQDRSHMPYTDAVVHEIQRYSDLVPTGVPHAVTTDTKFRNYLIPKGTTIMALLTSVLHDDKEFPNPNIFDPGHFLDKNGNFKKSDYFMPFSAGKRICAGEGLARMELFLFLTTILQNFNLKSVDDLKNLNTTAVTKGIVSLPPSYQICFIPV
T6 sequence (P22309 26-533): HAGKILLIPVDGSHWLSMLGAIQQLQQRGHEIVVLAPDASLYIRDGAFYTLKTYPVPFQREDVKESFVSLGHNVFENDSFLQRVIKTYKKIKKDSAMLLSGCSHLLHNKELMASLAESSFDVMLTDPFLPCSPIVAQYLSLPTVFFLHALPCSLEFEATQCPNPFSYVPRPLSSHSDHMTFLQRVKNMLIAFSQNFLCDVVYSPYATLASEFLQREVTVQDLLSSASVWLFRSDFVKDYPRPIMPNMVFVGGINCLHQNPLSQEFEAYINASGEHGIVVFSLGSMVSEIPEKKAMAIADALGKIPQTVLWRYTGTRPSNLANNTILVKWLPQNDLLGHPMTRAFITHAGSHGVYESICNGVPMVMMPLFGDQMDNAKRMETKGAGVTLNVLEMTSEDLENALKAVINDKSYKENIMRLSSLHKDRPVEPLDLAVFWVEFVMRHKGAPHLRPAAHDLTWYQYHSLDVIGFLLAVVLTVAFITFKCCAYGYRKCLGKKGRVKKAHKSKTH

CCCCNCCCOc1ccc(C(=O)c2c(CCCC)oc3ccc(NS(C)(=O)=O)cc23)cc1 [N-debutyl-dronedarone]
Percentage of oxidation (unchanged drug disappearance) by MAO-A (MAO-A): 98%
Metabolism by MAO-B (MAO-B): no metabolism occurred

CCCCc1oc2ccc(NS(C)(=O)=O)cc2c1C(=O)c1ccc(O)cc1 [Phenol-dronedarone]
Glucuronosyl transferase activity of UGT2B15 (UGT2B15): significant glucuronosyl transferase activity
Percentage of oxidation (unchanged drug disappearance) by CYP2C19 (CYP2C19): 52%
Glucuronosyl transferase activity of UGT1A3 (UGT1A3): significant glucuronosyl transferase activity
Glucuronosyl transferase activity of UGT1A1 (UGT1A1): significant glucuronosyl transferase activity

CCCCc1oc2ccc(NS(C)(=O)=O)cc2c1C(=O)c1ccc(OCCC(=O)O)cc1 [Propanoic acid-dronedarone]
Percentage of oxidation (unchanged drug disappearance) by CYP2C8 (CYP2C8): 28%

CCCCc1oc2ccc(NS(C)(=O)=O)cc2c1C(=O)c1ccc(OCCCN(CCCC)CCCC)cc1.Cl [Dronedarone, N-(2-Butyl-3-(4-(3-(dibutylamino)propoxy)benzoyl)-5-benzofuranyl)methanesulfonamide, hydrochloride]
Ki (CYP2D6): 5 µM
Increase of dronedarone exposure by ketoconazole ([1]; after single dose, clinical findings): 25 fold
Increase of steady state exposure of metoprolol ([1]; dronedarone 400–800 mg twice a day, metoprolol 200 mg daily, CYP2D6 extensive metabolizers, ref Damy et al. [2004]): 1.6- to 2.3 folds
Increase of steady state concentrations of simvastatin and its active metabolite ([1]; healthy volunteers, dronedarone 400 mg BID): 2- to 4 fold
Dose excreted in feces mainly as metabolites ([1]; human, in vivo): 84%
Eliminated by first-pass metabolism in the liver by CYP3A4 enzymes ([1]; human, in vivo): > 84%
Increase of trough sirolimus concentrations ([1]; kidney-transplant patient, 3 day-treatment with twice daily 400 mg dronedarone, ref Tichy et al. [2010]): up to threefold
Lowering of dronedarone exposure by rifampicin ([1]; rifampicin 600 mg once daily for 7 days): 5 fold
Incidence of any QTc interval >500 msec [2]: 7.7%
PR interval increase [2]: 13.4 ms

From paper PMC4186413, “Identification of metabolic pathways and enzyme systems involved in the in vitro human hepatic metabolism of dronedarone, a potent new oral antiarrhythmic drug” (Pharmacology Research & Perspectives, 2014)
